From PubChem BioAssay AID248 (DTP/NCI, 2004)
Inconclusive results and toxic doses are left out. Rule as the data show it: active = T/C of 150% or more; inactive = T/C below 125%.

Tested on: L1210 leukemia ip in BDF1 mice, survival T/C
Test: NCI In Vivo Anticancer Drug Screen. Data for tumor model L1210 Leukemia (intraperitoneal) in B6D2F1 (BDF1) mice
Conditions: endpoint: mean survival time, higher = longer survival
How it was run: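 Tumor cells were implanted, animals were treated, and survival was followed. The result divides the treated measurement by the vehicle-control measurement.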

[1] = dose: 100.0 mg/kg/injection, schedule: Q01DX001 (ip), vehicle: Klucel (hydroxypropylcellulose) (HPC)
[2] = dose: 100.0 mg/kg/injection, schedule: Q01DX009 (ip), vehicle: Klucel (hydroxypropylcellulose) (HPC)
[3] = dose: 200.0 mg/kg/injection, schedule: Q01DX001 (ip), vehicle: Klucel (hydroxypropylcellulose) (HPC)
[4] = dose: 200.0 mg/kg/injection, schedule: Q01DX009 (ip), vehicle: Klucel (hydroxypropylcellulose) (HPC)
[5] = dose: 400.0 mg/kg/injection, schedule: Q01DX001 (ip), vehicle: Klucel (hydroxypropylcellulose) (HPC)
[6] = dose: 400.0 mg/kg/injection, schedule: Q01DX009 (ip), vehicle: Klucel (hydroxypropylcellulose) (HPC)
[7] = dose: 222.0 mg/kg/injection, schedule: Q01DX Z (ip), vehicle: methylcellulose (MC)
[8] = dose: 333.0 mg/kg/injection, schedule: Q01DX Z (ip), vehicle: methylcellulose (MC)
[9] = dose: 500.0 mg/kg/injection, schedule: Q01DX Z (ip), vehicle: methylcellulose (MC)

Measured: T/C

COc1cccc(C2N(Cc3ccccc3OC)CCCN2Cc2ccccc2OC)c1
inactive: dose: 50.0 mg/kg/injection, schedule: Q01DX001 (ip), vehicle: carboxymethylcellulose (CMC) 93 % of control | dose: 100.0 mg/kg/injection, schedule: Q01DX001 (ip), vehicle: carboxymethylcellulose (CMC) 102 % of control | dose: 200.0 mg/kg/injection, schedule: Q01DX001 (ip), vehicle: carboxymethylcellulose (CMC) 106 % of control | dose: 400.0 mg/kg/injection, schedule: Q01DX001 (ip), vehicle: carboxymethylcellulose (CMC) 102 % of control

Cc1ccc(N=Cc2ccc3c(c2)OCO3)cc1
inactive: [1] 100 % of control | [2] 91 % of control | [3] 104 % of control | [4] 105 % of control | [5] 118 % of control | [6] 98 % of control

Cc1ccc(/C=N\N=C(\N)N/N=C/c2ccc(C)cc2)cc1
inactive: dose: 15.0 mg/kg/injection, schedule: Q01DX Z (ip), vehicle: carboxymethylcellulose (CMC) 95 % of control | dose: 30.0 mg/kg/injection, schedule: Q01DX Z (ip), vehicle: carboxymethylcellulose (CMC) 93 % of control | dose: 60.0 mg/kg/injection, schedule: Q01DX Z (ip), vehicle: carboxymethylcellulose (CMC) 87 % of control | dose: 120.0 mg/kg/injection, schedule: Q01DX Z (ip), vehicle: carboxymethylcellulose (CMC) 96 % of control | dose: 120.0 mg/kg/injection, schedule: Q01DX Z (oral), vehicle: carboxymethylcellulose (CMC) 101 % of control | dose: 240.0 mg/kg/injection, schedule: Q01DX Z (oral), vehicle: carboxymethylcellulose (CMC) 101 % of control | dose: 480.0 mg/kg/injection, schedule: Q01DX Z (oral), vehicle: carboxymethylcellulose (CMC) 96 % of control | dose: 960.0 mg/kg/injection, schedule: Q01DX Z (oral), vehicle: carboxymethylcellulose (CMC) 101 % of control

CC(C)(CN=Cc1ccccc1[O-])N=Cc1ccccc1[O-].[O]=[V]
inactive: dose: 50.0 mg/kg/injection, schedule: Q01DX009 (ip), vehicle: saline with Tween-80 98 % of control

CC(=O)CC(=O)OCC1COCO1 (stereo unspecified)
inactive: [7] 104 % of control | [8] 95 % of control | [9] 107 % of control

CC(=O)OCC(OC(C)=O)C1OCOC2COCOC21 (stereo unspecified)
inactive: [1] 108 % of control | [3] 89 % of control | [5] 101 % of control

CNS(=O)(=O)c1ccc(C)cc1
inactive: [2] 104 % of control | dose: 100.0 mg/kg/injection, schedule: Q04DX003 (ip), vehicle: saline 102 % of control | [4] 108 % of control | dose: 200.0 mg/kg/injection, schedule: Q04DX003 (ip), vehicle: saline 100 % of control | [6] 108 % of control | dose: 400.0 mg/kg/injection, schedule: Q04DX003 (ip), vehicle: saline 122 % of control

Cc1ccc(C(=O)CCCc2ccccn2)cc1
inactive: [7] 98 % of control | [8] 100 % of control | [9] 87 % of control

N#C/C(=C\c1cc(Cl)ccc1O)C1CCC([N+](=O)[O-])CC1 (stereo unspecified)
inactive: dose: 100.0 mg/kg/injection, schedule: Q04DX002 (ip), vehicle: saline with Tween-80 98 % of control | dose: 200.0 mg/kg/injection, schedule: Q04DX002 (ip), vehicle: saline with Tween-80 113 % of control | dose: 400.0 mg/kg/injection, schedule: Q04DX002 (ip), vehicle: saline with Tween-80 106 % of control

Cc1ccc(NC(c2cc(Br)ccc2O)P(=O)(c2ccccc2)c2ccccc2)c([N+](=O)[O-])c1 (stereo unspecified)
inactive: [2] 93 % of control | [4] 96 % of control | [6] 96 % of control

O=C(O)c1ccc2ccccc2c1C(=O)c1ccc(F)cc1
inactive: dose: 100.0 mg/kg/injection, schedule: Q04DX002 (ip), vehicle: Klucel (hydroxypropylcellulose) (HPC) 101 % of control | dose: 100.0 mg/kg/injection, schedule: Q04DX003 (ip), vehicle: other 113 % of control | dose: 200.0 mg/kg/injection, schedule: Q04DX002 (ip), vehicle: Klucel (hydroxypropylcellulose) (HPC) 96 % of control | dose: 200.0 mg/kg/injection, schedule: Q04DX003 (ip), vehicle: other 97 % of control | dose: 400.0 mg/kg/injection, schedule: Q04DX002 (ip), vehicle: Klucel (hydroxypropylcellulose) (HPC) 92 % of control | dose: 400.0 mg/kg/injection, schedule: Q04DX003 (ip), vehicle: other 97 % of control
